System: 192522-019-R-J2-PDC complex tumor spheroid viability
Assay: Anticancer human tumor 192522-019-R-J2-PDC patient-derived colon adenocarcinoma cell line growth inhibition [POLQ]
Settings: for IC50: curve of first compound; for viability, T/C: stronger effect = lower value
Outline: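 Complex spheroid viability model combining PDC tumour cells with endothelial (HUVEC) and MSC stromal cells. Novobiocin, ART-558 or RP6685 were tested singly and in combination with standard and investigational anticancer drugs. Each was titrated in half-log steps from near clinical Cmax, or from 10 microM where Cmax was unknown.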

[1] = second compound 0.0316 µM, first compound 0.0316 µM
[2] = second compound 0.0316 µM, first compound 0.1 µM
[3] = second compound 0.0316 µM, first compound 0.316 µM
[4] = second compound 0.0316 µM, first compound 1 µM
[5] = second compound 0.0316 µM, first compound 3.16 µM
[6] = second compound 0.0316 µM, first compound 10 µM
[7] = second compound 0.1 µM, first compound 0.0316 µM
[8] = second compound 0.1 µM, first compound 0.1 µM
[9] = second compound 0.1 µM, first compound 0.316 µM
[10] = second compound 0.1 µM, first compound 1 µM
[11] = second compound 0.1 µM, first compound 3.16 µM
[12] = second compound 0.1 µM, first compound 10 µM
[13] = second compound 0.316 µM, first compound 0.0316 µM
[14] = second compound 0.316 µM, first compound 0.1 µM
[15] = second compound 0.316 µM, first compound 0.316 µM
[16] = second compound 0.316 µM, first compound 1 µM
[17] = second compound 0.316 µM, first compound 3.16 µM
[18] = second compound 0.316 µM, first compound 10 µM
[19] = second compound 1 µM, first compound 0.0316 µM
[20] = second compound 1 µM, first compound 0.1 µM
[21] = second compound 1 µM, first compound 0.316 µM
[22] = second compound 1 µM, first compound 1 µM
[23] = second compound 1 µM, first compound 3.16 µM
[24] = second compound 1 µM, first compound 10 µM
[25] = second compound 3.16 µM, first compound 0.0316 µM
[26] = second compound 3.16 µM, first compound 0.1 µM
[27] = second compound 3.16 µM, first compound 0.316 µM
[28] = second compound 3.16 µM, first compound 1 µM
[29] = second compound 3.16 µM, first compound 3.16 µM
[30] = second compound 3.16 µM, first compound 10 µM
[31] = second compound 10 µM, first compound 0.0316 µM
[32] = second compound 10 µM, first compound 0.1 µM
[33] = second compound 10 µM, first compound 0.316 µM
[34] = second compound 10 µM, first compound 1 µM
[35] = second compound 10 µM, first compound 3.16 µM
[36] = second compound 10 µM, first compound 10 µM
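Further: spheroids exposed to drugs for seven days before reading.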
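Wherever viability, T/C is given: 100% = DMSO vehicle control viability in luminescence.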

Compound: CC1COCCN1c1cc(C2(S(C)(=N)=O)CC2)nc(-c2ccnc3[nH]ccc23)n1 (centres undefined) + Cc1cccc(N(C)C(=O)C2C(O)CCN2c2nc(C)cc(C(F)(F)F)c2C#N)c1
- IC50 (second compound 0.0316 µM): 4.75 µM
- IC50 (second compound 0.1 µM): 4.15 µM
- IC50 (second compound 0.316 µM): 5.85 µM
- IC50 (second compound 1 µM): 5.72 µM
- IC50 (second compound 3.16 µM): 7.68 µM
- IC50 (second compound 10 µM): 7.21 µM
- viability, T/C [1]: 112%
- viability, T/C [2]: 88%
- viability, T/C [3]: 92.8%
- viability, T/C [4]: 83.8%
- viability, T/C [5]: 59.9%
- viability, T/C [6]: 30.1%
- viability, T/C [7]: 101%
- viability, T/C [8]: 97.8%
- viability, T/C [9]: 97.7%
- viability, T/C [10]: 89.2%
- viability, T/C [11]: 54.8%
- viability, T/C [12]: 34.2%
- viability, T/C [13]: 106%
- viability, T/C [14]: 105%
- viability, T/C [15]: 105%
- viability, T/C [16]: 90.1%
- viability, T/C [17]: 64.5%
- viability, T/C [18]: 37.6%
- viability, T/C [19]: 97.6%
- viability, T/C [20]: 99.2%
- viability, T/C [21]: 96%
- viability, T/C [22]: 98.1%
- viability, T/C [23]: 64.3%
- viability, T/C [24]: 36.5%
- viability, T/C [25]: 104%
- viability, T/C [26]: 100%
- viability, T/C [27]: 103%
- viability, T/C [28]: 91.9%
- viability, T/C [29]: 78.7%
- viability, T/C [30]: 41.4%
- viability, T/C [31]: 95.5%
- viability, T/C [32]: 106%
- viability, T/C [33]: 113%
- viability, T/C [34]: 98.9%
- viability, T/C [35]: 75.7%
- viability, T/C [36]: 39.8%

Compound: CCCS(=O)(=O)Nc1ccc(F)c(C(=O)c2c[nH]c3ncc(-c4ccc(Cl)cc4)cc23)c1F + Cc1cccc(N(C)C(=O)C2C(O)CCN2c2nc(C)cc(C(F)(F)F)c2C#N)c1
- IC50 (second compound 0.0316 µM): > 10 µM
- IC50 (second compound 0.1 µM): > 10 µM
- IC50 (second compound 0.316 µM): > 10 µM
- IC50 (second compound 1 µM): > 10 µM
- IC50 (second compound 3.16 µM): > 10 µM
- IC50 (second compound 10 µM): > 10 µM
- viability, T/C [1]: 101%
- viability, T/C [2]: 110%
- viability, T/C [3]: 96.8%
- viability, T/C [4]: 119%
- viability, T/C [5]: 109%
- viability, T/C [6]: 77.7%
- viability, T/C [7]: 105%
- viability, T/C [8]: 102%
- viability, T/C [9]: 106%
- viability, T/C [10]: 114%
- viability, T/C [11]: 101%
- viability, T/C [12]: 78.7%
- viability, T/C [13]: 106%
- viability, T/C [14]: 101%
- viability, T/C [15]: 97.3%
- viability, T/C [16]: 97%
- viability, T/C [17]: 105%
- viability, T/C [18]: 62.8%
- viability, T/C [19]: 113%
- viability, T/C [20]: 118%
- viability, T/C [21]: 103%
- viability, T/C [22]: 102%
- viability, T/C [23]: 120%
- viability, T/C [24]: 61.5%
- viability, T/C [25]: 101%
- viability, T/C [26]: 106%
- viability, T/C [27]: 105%
- viability, T/C [28]: 103%
- viability, T/C [29]: 102%
- viability, T/C [30]: 73.2%
- viability, T/C [31]: 110%
- viability, T/C [32]: 102%
- viability, T/C [33]: 98.3%
- viability, T/C [34]: 106%
- viability, T/C [35]: 124%
- viability, T/C [36]: 66.2%

— PubChem BioAssay AID1963850 (Molecular Pharmacology Branch, DTP, NCI, 2024)
